Common to all, as to test: NCI anticancer screen, dose series, 48 h
Assay [1] relates to CCRF-CEM leukemia.
The test system of assay [2] is HOP-92 NSCLC.
In assay [3] the test system is RPMI-8226 leukemia.
The test system of assay [4] is SF-268 CNS.
Assay [5] concerns SF-539 CNS.
For assay [6], the system named is SK-MEL-28 melanoma.
The test system of assay [7] is SK-MEL-5 melanoma.
For assay [8], the system named is SW-620 colon.
The test system of assay [9] is UACC-257 melanoma.
Assay [10] concerns UO-31 renal.

Structures are written as SMILES.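 Dose response: 5 concentrations. Exposure: 48 h. Format: 96-well plates. Endpoint: linear interpolation; highest concentration if not reached. GI50 marks 50% less growth. TGI marks complete inhibition of growth.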

Turning to `COc1ccc2c(c1)O/C(=C\c1cccc(OCC(=O)Nc3nc(C)c(C)s3)c1)C2=O`, the GI50 is 0.312 µM in assay [1]; 1.32 µM in assay [2]; 1.66 µM in assay [3]; 0.638 µM in [4]; 1.59 µM in [5]; 20.9 µM in assay [6]. Besides, the GI50 was 2 µM in [7], 2.86 µM in assay [8], over 100 µM in [9] and 0.547 µM in [10]. In addition, the TGI was 3.07 µM in [1]; 3.09 µM in assay [2]; 3.97 µM in assay [3]; 1.4 µM in [4]; 2.98 µM in assay [5]; over 100 µM in assay [6]. The TGI in assay [7] was over 100 µM; in assay [8], over 26.8 µM; in assay [9], over 100 µM; in [10], 1.02 µM.

On to `COc1ccc2c(c1)[n+](=O)c(C(=O)CC(=O)C(=O)Nc1cccc(C)c1C)c(C)n2[O-]`, for which the TGI in assay [1], in [2], in [3], in [4], in assay [5] and in [6] was over 100 µM each time. The TGI in assay [7], in [8], in assay [9] and in assay [10] was over 100 µM each time.

As for `O=C(/C=C\n1cnc(-c2cc(C(F)(F)F)cc(C(F)(F)F)c2)n1)N1CC(F)(F)C1`, the GI50 was 0.407 µM in assay [1]; 0.0288 µM in [2]; 0.408 µM in [3]; 0.254 µM in assay [4]; 0.161 µM in assay [5]; 0.46 µM in assay [6]. Moreover, the GI50 is 0.644 µM in [7], 0.318 µM in [8], 1.17 µM in assay [9] and 0.422 µM in assay [10]. For the same compound, the TGI was over 18.8 µM in [1]; 4.37 µM in assay [2]; 17.9 µM in assay [3]; 2.48 µM in assay [4]; 1.58 µM in [5]; 4.81 µM in [6]. In addition, the TGI in [7] was 4.08 µM; in assay [8], 12.9 µM; in [9] it was over 13.1 µM; in assay [10] it was over 25 µM.

With `COc1ccc2c(c1)CCc1c(CO)c(COC(=O)NC(C)C)n(C)c1-2`, the TGI is 12.5 µM in assay [1]; 22.5 µM in [2]; 7.05 µM in [3]; 63.8 µM in assay [4]; over 87 µM in [5]; 28.6 µM in [6]. Moreover, the TGI stood at 15.1 µM in assay [7], 19.3 µM in [8], 27.1 µM in assay [9] and 19.6 µM in assay [10].

As to `Cc1ccccc1N=Nc1c(-c2ccccc2)nn(C(=O)CC(=O)Nc2cccc(Cl)c2)c1-c1ccccc1`, the TGI in assay [1] was 25.4 µM; in [2], over 100 µM; in [3], 21.2 µM; in assay [4], over 31.6 µM; in assay [5] it was over 31.6 µM; in assay [6] it was over 31.6 µM. Besides, the TGI in assay [7] is 24.9 µM; in [8] it was over 39.2 µM; in [9], 2.58 µM; in assay [10], over 31.6 µM.

Regarding `NCCOc1ncccc1/C=C1\c2ccccc2-c2ccc([N+](=O)[O-])cc21`, the GI50 is 0.0181 µM in [1]; 0.0234 µM in assay [2]; 0.0383 µM in [3]; 0.0827 µM in [4]; 0.135 µM in assay [5]; 0.241 µM in [6]. The GI50 in assay [7] was 0.101 µM; in [8], 0.0725 µM; in [9], 0.209 µM; in assay [10], 0.0439 µM. The TGI in [1] is 0.0973 µM; in assay [2] it was 0.477 µM; in assay [3] it was 0.317 µM; in [4], 0.619 µM; in assay [5], 0.362 µM; in assay [6] it was 1.06 µM. Further, the TGI came to 0.253 µM in [7], 0.834 µM in assay [8], 1.39 µM in assay [9] and 0.186 µM in assay [10].

As to `O=C(N/C(=C/c1cccc([N+](=O)[O-])c1)c1nc2ccc(Cl)cc2[nH]1)c1ccccc1`, the TGI in [1] was 48 µM; in assay [2] it was 78.4 µM; in [3] it was 69.7 µM; in assay [4], over 100 µM; in [5] it was 12.5 µM; in assay [6], over 100 µM. Besides, the TGI in [7] was 12.7 µM; in assay [8], 22.8 µM; in assay [9], over 100 µM; in assay [10], 17.2 µM.

`COC(=O)CC(=O)NCC1=CCC(=O)CC1`: the TGI in [1], in assay [2], in assay [3], in assay [4], in assay [5] and in assay [6] was over 100 µM in each case. Further, the TGI in [7], in [8], in [9] and in assay [10] was over 100 µM in each case.

In the case of `Cn1cc(C2=C(c3ccccc3C(F)(F)F)C(=O)NC2=O)c2ccccc21`, the GI50 in [1] was 4.86 µM; in assay [2] it was 17.2 µM; in assay [3] it was 10.7 µM; in [4] it was 11.4 µM; in assay [5], 11.1 µM; in assay [6], 14.6 µM. Besides, the GI50 is 4.74 µM in assay [7], 10.2 µM in assay [8], 9.59 µM in [9] and 7.84 µM in [10]. The TGI in assay [1], in [2], in assay [3], in assay [4], in assay [5] and in [6] was over 25 µM each time. Besides, the TGI in assay [7] is 13 µM; in assay [8], over 25 µM; in [9], over 22.5 µM; in [10], over 25 µM.

As for `NC(=S)N/N=C1/CN(c2ccc(Cl)c(Cl)c2)CC(=O)C1c1nc2ccccc2s1` (stereo not given), the TGI in assay [1], in assay [2], in assay [3], in assay [4], in [5] and in assay [6] was over 100 µM in each case. Also, the TGI in assay [7], in [8], in assay [9] and in assay [10] was over 100 µM in each case.
